Article PMC8037182, “Solvothermal Synthesis of Multiple Dihydropyrimidinones at a Time as Inhibitors of Eg5” (Molecules, 2021)

Target: T1, Eg5 motor protein (Homo sapiens, UniProt P52732)
T1 construct: Eg5 motor domain (amino acids 1-368) was cloned into pET22b; His-tag (C); made in house; host or cells: Escherichia coli BL21 (DE3)
T1 sequence (P52732 1-368): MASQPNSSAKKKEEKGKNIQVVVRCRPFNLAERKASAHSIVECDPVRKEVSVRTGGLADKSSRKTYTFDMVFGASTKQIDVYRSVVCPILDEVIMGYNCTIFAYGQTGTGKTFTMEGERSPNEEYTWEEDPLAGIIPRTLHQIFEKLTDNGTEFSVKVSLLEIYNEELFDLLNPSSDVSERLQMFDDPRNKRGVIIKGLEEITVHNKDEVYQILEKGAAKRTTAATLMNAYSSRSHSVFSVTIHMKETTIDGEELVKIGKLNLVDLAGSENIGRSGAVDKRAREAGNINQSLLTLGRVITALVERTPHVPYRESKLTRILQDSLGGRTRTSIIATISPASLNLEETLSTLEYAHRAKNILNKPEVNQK
Test: microtubule-activated Eg5 motor protein ATPase assay (malachite green, OD630)
Type: biochemical
Settings: for IC50: microtubule-stimulated KSP ATPase activity
Description: Eg5 motor domain (amino acids 1-368) was cloned into pET22b and expressed in Escherichia coli BL21 (DE3) cells.
Tubulin was purified from pig brain, as described in the literature, and stored at −60 °C in BRB80 (80 mM K-Pipes, pH 6.8, 1 mM EGTA, 1 mM MgCl2). Before the assay of Eg5 ATPase, microtubules were assembled in the presence of paclitaxel and were then separated from unassembled tubulin by centrifugation as described in the literature.
Inhibitory activities of the compounds were measured using a microtubule-activated ATPase assay. The compounds, paclitaxel stabilized microtubules, Eg5 motor protein and BRB80 were added to wells of a 96-well plate in a total reaction volume of 38.5 μL. Reactions were started by the addition of 522.11 μM ATP in a total reaction volume of 98.5 μL, incubated at 37 °C for 30 min and terminated by the addition of 15 μL of perchloric acid. The mixture was centrifuged (10,000 rpm) 10 min at room temperature. The supernatant from this centrifugation step was mixed with HCl 1 M, 33 mM malachite green, 775 mM ammonium molybdate tetrahydrate. After 10 min the absorbance was measured at 630 nm using a microplate reader (BIO-RAD iMark^TM). […] Monastrol was used as the positive control. All conditions were performed in three independent duplicate experiments and averaged data points are shown as mean values ± SD, IC50 values were calculated with SPSS17.0 software. The primary data were shown in Supplementary Materials Tables S1–S3.
A sequence of human Eg5 corresponding to amino acids 1 to 368 was amplified with polymerase chain reaction (PCR) by NOVOPRO BIOSCIENCE INC. It was cloned into pET22b introducing a C-terminal His-tag. The protein was expressed in Escherichia coli BL21 (DE3) cells for 12 h at 25 ℃ in LB containing 1mM Isopropyl-beta-D-thiogalactopyranoside (IPTG), 50 ug/ml Ampicillin. The harvested cells were lysed with Ultrasonic Processor in Binder-buffer (50 mM Tris-HCl, 350 mM NaCl, 10 mM Imidazole, pH 8.0). The clarified lysate was loaded onto a Ni-IDA -Sepharose CL-6B Affi Gel column (Sigma), washed with Washing-buffer(20 mM Tris-HCl, 350 mM NaCl, 20 mM Imidazole, pH 8.0) untill effluent OD280 value reaches baseline. Then it was eluted with Elution-buffer (20 mM Tris-HCl, 350 mM NaCl , 250 mM Imidazole, pH8.0). The buffer was exchanged to 150 mM NaCl, 20mM Tris pH 8.0 by dialysis. The protein concentration was adjusted to 2 mg/ml (measured by a Bradford assay using bovine serum albumin (BSA) as standard). Eg5368H was stored at -20 ℃.
Pig brains were cleaned of blood clots with kitchen paper, weighed, and transferred to a Waring blender. Cold (4 ℃) depolymerization buffer (DB) was added at a ratio of 1 liter/kg of brain tissue. The mixture was homogenized twice for approximately 30 s. The homogenates were then centrifuged in a SLA 1500 Sorvall rotor at 29,000g for 60 min at 4 ℃. The supernatants were pooled and supplemented with an equal volume of warm (37 ℃) high-molarity PIPES buffer (HMPB), ATP (1.5 mM final), and GTP (0.5 mM final). An equal volume (1/3 of the final volume) of pre-warmed to 37 ℃ anhydrous glycerol was added to this solution. This mixture was incubated in a 37 ℃ water bath for 1 h. The polymerized tubulin was then centrifuged in a Ti 45 Beckman rotor at 151,000g (44,000 rpm) for 30 min at 37 ℃. The resulting microtubule pellets were resuspended in 100 ml of cold DB and left for 30 min on ice. The depolymerized tubulinwas subsequently centrifuged in a Ti 45 Beckman rotor at 70,000g (30,000 rpm) for 30 min at 4 ℃. The supernatant from this centrifugation step was mixed with an equal volume of the HMPB supplemented with ATP and GTP, followed by the addition of glycerol (1/3 of the final volume) as described above. The mixture was incubated in a 37 ℃ water bath for 30 min, and the polymerized tubulin was pelleted in a Ti 45 Beckman rotor at 151,000g (44,000 rpm) for 30 min at 37 ℃. […]

OD630 Value Mean (compound 24.24 uM) | OD630 Value Mean (compound 30.3 uM) | OD630 Value Mean (compound 60.61 uM) | OD630 Value Mean (compound 80.81 uM) | OD630 Value Mean (compound 90.91 uM) | OD630 Value Mean (compound 121.21 uM) | IC50 | OD630 Value Mean (compound 25.38 uM) | OD630 Value Mean (compound 50.76 uM) | OD630 Value Mean (compound 67.68 uM) | OD630 Value Mean (compound 76.14 uM) | OD630 Value Mean (compound 101.52 uM) | OD630 Value Mean (compound 20.2 uM) | OD630 Value Mean (compound 40.41 uM) | OD630 Value Mean (compound 53.87 uM) | OD630 Value Mean (compound 107.74 uM) | Structure (SMILES)
 | 0.243 | 0.191 | 0.141 | 0.129 | 0.123 | 57.4 µM |  |  |  |  |  |  |  |  |  | CCOC(=O)c1[nH]c(C2NC(=S)NC(C)=C2C(=O)OC)c(C(=O)OCC)c1C (stereo not shown) [D12]
 | 0.25 | 0.187 | 0.151 | 0.138 | 0.14 | 71.9 µM |  |  |  |  |  |  |  |  |  | COC(=O)c1[nH]c(C2NC(=S)NC(C)=C2C(=O)c2ccccc2)c(C(=O)OC)c1C (stereo not shown) [D14]
 |  |  |  |  |  | 51.7 µM | 0.214 | 0.193 | 0.190 | 0.188 | 0.177 |  |  |  |  | CCOC(=O)C1=C(C)NC(=S)NC1c1cccc(O)c1 (stereo not shown) [Monastrol, monastrol, reference compound]

The next lines start with the compound.

Structure (SMILES) | OD630 Value Mean (compound 24.24 uM) | OD630 Value Mean (compound 30.3 uM) | OD630 Value Mean (compound 60.61 uM) | OD630 Value Mean (compound 80.81 uM) | OD630 Value Mean (compound 90.91 uM) | OD630 Value Mean (compound 121.21 uM) | IC50 | OD630 Value Mean (compound 25.38 uM) | OD630 Value Mean (compound 50.76 uM) | OD630 Value Mean (compound 67.68 uM) | OD630 Value Mean (compound 76.14 uM) | OD630 Value Mean (compound 101.52 uM) | OD630 Value Mean (compound 20.2 uM) | OD630 Value Mean (compound 40.41 uM) | OD630 Value Mean (compound 53.87 uM) | OD630 Value Mean (compound 107.74 uM)
CCOc1ccccc1C1NC(=S)NC(C)=C1C(=O)Nc1ccc(Cl)cc1 (stereo not shown) [C9] | 0.221 | 0.182 | 0.163 | 0.157 | 0.156 | 0.14 | 30.2 µM |  |  |  |  |  |  |  |  | 
CCOC(=O)c1c(C2NC(=O)NC(C)=C2C(=O)Nc2ccccc2OC)[nH]c(C(=O)OC)c1C (stereo not shown) [D1] |  |  |  |  |  |  | 38.7 µM | 0.26 | 0.248 | 0.195 | 0.189 | 0.159 |  |  |  | 
CCOC(=O)c1c(C2NC(=O)NC(C)=C2C(=O)Nc2ccccc2C)[nH]c(C(=O)OC)c1C (stereo not shown) [D2] |  |  | 0.219 | 0.137 |  |  | 67.3 µM |  |  |  |  |  | 0.322 | 0.279 | 0.26 | 
CCOC(=O)c1[nH]c(C2NC(=O)NC(C)=C2C(=O)Nc2ccccc2OC)c(C(=O)OC)c1C (stereo not shown) [D3] | 0.218 | 0.182 | 0.146 |  | 0.122 | 0.115 | 53.6 µM |  |  |  |  |  |  |  |  | 
CCOC(=O)c1[nH]c(C2NC(=O)NC(C)=C2C(=O)Nc2ccccc2C)c(C(=O)OC)c1C (stereo not shown) [D4] | 0.198 | 0.174 | 0.158 |  | 0.148 | 0.134 | 71.3 µM |  |  |  |  |  |  |  |  | 
CCOC(=O)c1[nH]c(C2NC(=O)NC(C)=C2C(=O)Nc2ccc(Cl)cc2)c(C(=O)OCC)c1C (stereo not shown) [D7] |  | 0.231 | 0.197 | 0.164 | 0.158 | 0.146 | 63.2 µM |  |  |  |  |  |  |  |  | 
CCOC(=O)c1c(C2NC(=O)NC(C)=C2C(=O)Nc2ccccc2)[nH]c(C(=O)OC)c1C (stereo not shown) [D10] |  |  | 0.225 | 0.197 | 0.191 | 0.133 | 64.4 µM |  |  |  |  |  |  |  |  | 0.139
